The test system of one experiment is HCT116 cells. Nature of the experiment: Microarray gene expression of drug-treated cells versus mock-treated cells. It is filed as cell-based, human. The settings on record: for expression response of the 11 hypermethylated guide genes: 300 nM TSA 18 hours or 5 μM DAC 96 hours. The method, then:
Cell culture and treatment. HCT116 cells and isogenic genetic knockout derivatives were maintained as previously described (Rhee et al^1). For drug treatments, log phase HCT116 cells were cultured in McCoys 5A media (Invitrogen) containing 10% BCS and 1× penicillin/streptomycin with 5 μM 5-aza-deoxycytidine (DAC) (Sigma; stock solution: 1 mM in PBS) for 96 hours, replacing media and DAC every 24 hours. Cell treatment with 300 nM Trichostatin A (Sigma; stock solution: 1.5 mM dissolved in Ethanol) was performed for 18 hours. Control cells underwent mock treatment in parallel with addition of equal volume of PBS without drugs.
Microarray analysis. Total RNA was harvested from log phase cells using the Qiagen kit according to the manufacturers instructions, including a DNAase step. RNA was quantified using the Nanoprop ND-100 followed by quality assessment with 2100 Bioanalyzer (Agilent Technologies). RNA concentrations for individual samples were greater than 200 ng/ul, with 28 s/18 s ratios greater than 2.2 and RNA integrity numbers of 10. Sample amplification and labeling procedures were carried out using the Low RNA Input Fluorescent Linear Amplification Kit (Agilent Technologies) according to the manufacturers instructions. The labeled cRNA was purified using the RNeasy mini kit (Qiagen) and quantified. RNA spike-in controls (Agilent Technologies) were added to RNA samples before amplification. 0.75 microgram of samples labeled with Cy3 or Cy5 were mixed with control targets (Agilent Technologies), assembled on Oligo Microarray, hybridized, and processed according to the Agilent microarray protocol. Scanning was performed with the Agilent G2565BA microarray scanner under default settings recommended by Agilent Technologies.
Data analysis. All arrays were subject to quality checks recommended by the manufacturer. […] The log ratio of red signal to green signal was calculated after background-subtraction and LoEss normalization as implemented in the limma package from Bioconductor (Smyth et al. 1; Smyth et al. 2). […]

Another experiment has as its system colorectal cell lines. Nature of the experiment: RT-PCR re-expression of Neuralized and FOXL2 in colorectal cancer cell lines. Type of experiment: cell-based, human. The conditions noted are these: DAC treatment, panel of colorectal cell lines.

Where only a bound is given, the exact number is not on record here.

Procedure for colorectal cell lines: Cell culture and treatment. HCT116 cells and isogenic genetic knockout derivatives were maintained as previously described (Rhee et al^1). For drug treatments, log phase HCT116 cells were cultured in McCoys 5A media (Invitrogen) containing 10% BCS and 1× penicillin/streptomycin with 5 μM 5-aza-deoxycytidine (DAC) (Sigma; stock solution: 1 mM in PBS) for 96 hours, replacing media and DAC every 24 hours. Cell treatment with 300 nM Trichostatin A (Sigma; stock solution: 1.5 mM dissolved in Ethanol) was performed for 18 hours. Control cells underwent mock treatment in parallel with addition of equal volume of PBS without drugs. Methylation and gene expression analysis. RNA was isolated with TRIzolTM Reagent (Invitrogen) according to the manufacturer's instructions. For reverse transcription-PCR (RT-PCR), 1 μg of total RNA was reverse transcribed by using Ready-To-GoTM You-Prime First-Strand Beads (Amersham Biosciences) with addition of random hexamers (0.2 μg per reaction). […] For MSP analysis, DNA was extracted following a standard phenol-chloroform extraction method. Bisulfite modification of genomic DNA was carried out using the EZ DNA methylation KitTM (Zymo Research). […] MSP was performed as previously described (Herman et al.). […]

For the compound `CC(/C=C/C(=O)NO)=C\[C@@H](C)C(=O)c1ccc(N(C)C)cc1` [TSA, Trichostatin A], the “expression response of the 11 hypermethylated guide genes” value in the experiment on HCT116 cells was “remained within the TSA non-responsive zone”.
As to `Nc1ncn([C@H]2C[C@H](O)[C@@H](CO)O2)c(=O)n1` [DAC, 5-aza-deoxycytidine], the “expression response of the 11 hypermethylated guide genes” value in the experiment with HCT116 cells was “four (SFRP1, TFF2, TFF3, and CHFR) demonstrated re-expression responses near the top”. For the same compound, the “DAC induced expression for genes in the TSA non-response zone” value in the experiment on HCT116 cells (5 μM DAC, 96 hours) was above 2 fold. Moreover, the “re-expression of hypermethylated Neuralized and FOXL2 genes” value with colorectal cell lines is “ability to re-express the genes”.

Values taken from US20080085867A1, “Early detection and prognosis of colon cancers” (The Johns Hopkins University, priority 2006, published 2008).
